{
  "source": "patent US20160175224A1",
  "about": "“ANTIPERSPIRANT COMPOSITION” (priority 2014, published 2016)",
  "test_system": "subjects' underarms",
  "test": "In vivo study of eight-hour antiperspirant efficacy (FDA Guidelines for Effectiveness Testing of OTC Antiperspirant Drug Products, hot room, weighed pads)",
  "set-up": "species or system human",
  "settings": "for Antiperspirant activity against FDA Guidelines success criteria (minimum of 20% sweat reduction in at least 50% volunteers): eight-hour efficacy, day 30 of application period; for % of subjects with reduction in relation to control / Average % of sweat reduction (mg): roll-on compositions of Examples 7-9 applied daily to one underarm for 30 days, eight hours after, hot room 37.8° C.; for % of subjects with reduction in relation to control: other underarm untreated control, 30-40% RH, 80 minutes, fifteen subjects per composition; for Average % of sweat reduction (mg): relative to untreated control underarm, pad weights",
  "description": "An in vivo study of the eight-hour antiperspirant efficacy of the compositions of Examples 7, 8 and 9 was performed as follows using the US FOOD AND DRUG ADMINISTRATION Guidelines for Effectiveness Testing of OTC Antiperspirant Drug Products, 2003. Example 7 was comparative, as indicated above.\nFifteen subjects were used to test each composition. Subjects were first subjected to a 21-day conditioning period, which began with a 14 day wash out period. During 14 day wash out period, the subjects used a standard bar soap and bacteriostatic deodorant supplied by the institute running the study. […] Following this, from day 15 to day 21 the subjects were instructed to use only standard soap and discontinue the bacteriostatic deodorant.\nDuring the conditioning period, subjects were instructed and supervised by a trained technician to wash their underarms according to the following procedure: a) wash one of the underarms for 10 seconds with an aqueous solution of standard soap 2.0%; b) rinse thoroughly with running water until the soap is completely removed; c) dry the underarm with a paper towel; and d) repeat the procedure with the other underarm.\nAfter the wash out period was completed, each subject was checked for unauthorized use of antiperspirant products during the conditioning period using a cotton swab in the underarms.\nNext, a 30 day application period began. 150 cm^2, randomly distributed areas were marked on each subjects' underarm. Test samples were then applied to one underarm of each subject, while the other underarm was untreated as a control every day during the 30 day application period. Subjects waxed or shaved their underarms every Friday evening.\nOn day 30 of the 30 day application period, each subject was provided with a 100% cotton t-shirt previously washed with water and neutral soap without fragrance and again washed only with water. The subjects were instructed to wear the T-shirts for eight hours.\nAfter eight hours, the subjects were placed in a room at 37.8° C.±1° C. and relative humidity between 30% and 40% for 80 minutes. After 40 minutes in the hot room, pads previously weighed and stored in closed polyethylene bags were removed from the bags and placed immediately onto the subjects' underarms, and then replaced every 20 minutes. Subjects ingested 200 mL of water when entering the hot room and also 40 minutes later in order to maintain the internal level of hydration, allowing the sweat to flow freely and evidencing only the effects of the formulation of the product tested. The initial 40 minute period was considered as an acclimatization period.\nUsed pads were collected every 20 minutes and weighed. The weights of the pads pre- and post-use were compared according to the FDA Guidelines using statistical analysis with the Wilcoxon Signed Rank test (FDA protocol) and the Student-t test paired with the unilateral hypothesis of improvement for sweating assessment. The confidence level considered in the comparative analysis was 95%. Software: XLSTAT 2013 and MINITAB 14.",
  "data": [
    {"substance": "acetyl hexapeptide-8 [reference compound]", "values": [
      {"measurement": "Antiperspirant activity against FDA Guidelines success criteria (minimum of 20% sweat reduction in at least 50% volunteers)", "result": "did not meet success criteria"},
      {"measurement": "% of subjects with reduction in relation to control", "result": 66.7, "unit": "%"},
      {"measurement": "Average % of sweat reduction (mg)", "result": 8.0, "unit": "%"},
      {"measurement": "Average % of sweat reduction (mg)", "setting": "listed as acetyl hexapeptide-8", "result": 8.0, "unit": "%"}
    ]},
    {"substance": "acetyl octapeptide-3", "values": [
      {"measurement": "Antiperspirant activity against FDA Guidelines success criteria (minimum of 20% sweat reduction in at least 50% volunteers)", "result": "confirms antiperspirant activity"},
      {"measurement": "% of subjects with reduction in relation to control", "result": 81.8, "unit": "%"},
      {"measurement": "Average % of sweat reduction (mg)", "result": 20.7, "unit": "%"}
    ]},
    {"substance": "dipeptide diaminobutyroyl benzylamide diacetate", "values": [
      {"measurement": "Antiperspirant activity against FDA Guidelines success criteria (minimum of 20% sweat reduction in at least 50% volunteers)", "result": "confirms antiperspirant activity"},
      {"measurement": "% of subjects with reduction in relation to control", "result": 92.3, "unit": "%"},
      {"measurement": "Average % of sweat reduction (mg)", "result": 25.6, "unit": "%"}
    ]}
  ]
}
